Read-outs that look alike come from different tables or passages of the source.
Columns and labels:
μOR = μOR (Homo sapiens, UniProt P35372); test: biochemical; format: binding
[1] = parameters: method as in Kamble et al., 2021; settings: rats; oral; 1.1 mg∙kg^−1; ref Kamble et al., 2021; cited from earlier work
FLAG-mouse δOR [2] = target: T1, FLAG-mouse δOR (Mus musculus, UniProt P32300); parameters: method as in Gutridge et al., 2020; settings: cited from earlier work
T1 construct: expressed in transfected cells; host or cells: HEK cells (HEK-293), transient, co-transfected with pGloSensor22F

C57Bl/6 male mice [3] = test: Locomotor evaluation (ambulation)
δOR KO mice = test: Two-bottle choice alcohol paradigm (drinking in the dark, 10% ethanol vs. water); format: in vivo, mouse; settings: for Ethanol consumption: δOR KO male mice
Experimental: (§1) Mice were subject to drinking in the dark (DID), limited access (4 h per day), two-bottle choice (10% ethanol vs. water) paradigm in which they were trained to consume alcohol voluntarily as previously described ([Rhodes et al., 2005]; [van Rijn and Whistler, 2009]). Mice reached stable alcohol consumption within 3 weeks of training, and after the third week, drug injections were administered prior to the daily drinking session on Friday. Drug’s effect on alcohol consumption was measured as the change in Friday’s alcohol intake minus the average alcohol intake from the preceding Tuesday–Thursday of that week (g∙kg^−1). A summary of all statistical analyses for the drinking data can be found in Supplemental Tables S6–S9. In brief, results from two-bottle choice alcohol consumption paradigms were assessed for statistical significance using RM two-way ANOVA for main effects of drug dose, treatment day, and drug dose × treatment day; Sidak’s multiple comparisons (MC) between alcohol consumption baseline (Tuesday–Thursday average) vs. treatment day consumption (Friday) were then used as the post hoc test for each drug dose tested. The same RM two-way ANOVA and Sidak’s MC post hoc analyses were used for water consumption and ethanol preference data. […] Sex differences between baseline data were evaluated using RM two-way ANOVA for main effects of sex, treatment baseline, and sex × treatment baseline; Sidak’s multiple comparisons (MC) between male and female mice were then used as the post hoc test for each treatment week tested.

HA-mouse µOR [4] = target: T2, HA-mouse µOR (Mus musculus, UniProt P42866); settings: cited from earlier work
T2 construct: expressed in transfected cells; host or cells: HEK cells (HEK-293), transient, co-transfected with pGloSensor22F

FLAG-mouse κOR [5] = target: T3, FLAG-mouse κOR (Mus musculus, UniProt P33534); parameters: method as in Gutridge et al., 2020; settings: cited from earlier work
T3 construct: expressed in transfected cells; host or cells: HEK cells (HEK-293), transient, co-transfected with pGloSensor22F

C57Bl/6 male mice [6] = test: Brief and extended conditioned place preference paradigms; format: in vivo, mouse
From the text: Mice were conditioned to drugs and vehicle as described previously in two-chamber conditioned place preference (CPP) boxes in a counterbalanced, unbiased approach for either two drug conditioning sessions over 2 days (brief) or four drug conditioning sessions over 8 days (extended) ([Váradi et al., 2015]; [Gutridge et al., 2020]). For brief and extended conditioned place preference experiments, separate groups of mice were used for each drug dose. A summary of all statistical analyses for the CPP data can be found in Supplemental Table S4. In brief, all CPP data were analyzed with two-tailed, paired t tests comparing time spent on the drug-paired side pre- and post-conditioning.

κOR = κOR (Homo sapiens, UniProt P41145); test: biochemical; format: binding
wild-type C57Bl/6 mice [7] = settings: 10 and 30 mg∙kg^−1; male mice; ref Gutridge et al., 2020; cited from earlier work
C57Bl/6 male mice [8] = settings: ref Gutridge et al., 2020; cited from earlier work
human ORs = system: human ORs; parameters: method as in Kruegel et al., 2016; settings: ref Kruegel et al., 2016; cited from earlier work
WT and δOR KO mice = test: Seizure assay (modified Racine scale); format: in vivo, mouse
Experimental: To assess drug-induced seizurogenic activity, mice were placed in a clear plastic cylinder (25 cm diameter, 35 cm height) immediately following drug injection and their activity was recorded in a well-lit, quiet room using iSpy camera software (iSpyConnect.com). A recording time of 90 min was chosen for the tested compounds based on previous observations of seizures time lengths in experiments with 30 mg∙kg^−1 paynantheine. If animals were not presenting with seizure activity after 30 min, the recording time was shortened accordingly. Seizure severity was scored based on the modified Racine scale (half-scores allowed) in bins of 3–5 min. Onset to first seizure symptom, onset to highest Racine score, and highest Racine score were also assessed. A summary of all statistical analyses for the seizure data can be found in Supplemental Table S3. In brief, seizure-like behavior between wild type and δOR KO mice was compared with a two-tailed, unpaired t test with Welch’s correction on area under the curve data generated from graphing the highest Racine score per time bin over 90 min for each mouse.

C57Bl/6 male mice [9] = test: Tail flick thermal nociception assay; format: in vivo, mouse
HA-mouse µOR [10] = target: T2, HA-mouse µOR; test: cell-based
wild-type C57Bl/6 mice [11] = test: Two-bottle choice alcohol paradigm (drinking in the dark, 10% ethanol vs. water); format: in vivo, mouse
Experimental: as §1

[12] = Maximum tolerated dose (side effect profile); settings: C57Bl/6, mouse, in vivo, sc, 10 mg∙kg^−1
FLAG-mouse δOR [13] = target: T1, FLAG-mouse δOR; test: cell-based
FLAG-mouse κOR [14] = target: T3, FLAG-mouse κOR; test: cell-based
δOR = δOR (Homo sapiens, UniProt P41143); test: biochemical; format: binding
[15] = ref Gutridge et al., 2020, read-out: cAMP IC50
[16] = HEK293, read-out: cAMP α (% inhibition at maximal efficacy)
[17] = 10 mg∙kg^−1 s.c., WT male and female mice
[18] = 7-hydroxyspeciogynine 10 mg∙kg^−1 s.c., WT male mice

T2 sequence (P42866 whole entry): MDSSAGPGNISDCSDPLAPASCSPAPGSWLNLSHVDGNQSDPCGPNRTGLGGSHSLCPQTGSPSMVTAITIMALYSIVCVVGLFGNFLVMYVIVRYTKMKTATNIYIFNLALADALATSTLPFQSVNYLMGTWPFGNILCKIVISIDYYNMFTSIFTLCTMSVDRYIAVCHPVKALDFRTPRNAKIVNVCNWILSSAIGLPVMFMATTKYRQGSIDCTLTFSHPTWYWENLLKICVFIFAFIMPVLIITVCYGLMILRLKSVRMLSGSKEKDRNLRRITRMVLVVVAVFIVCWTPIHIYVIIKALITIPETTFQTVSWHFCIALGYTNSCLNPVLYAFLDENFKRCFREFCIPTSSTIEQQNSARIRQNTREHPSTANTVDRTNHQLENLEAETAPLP
T3 sequence (P33534 whole entry): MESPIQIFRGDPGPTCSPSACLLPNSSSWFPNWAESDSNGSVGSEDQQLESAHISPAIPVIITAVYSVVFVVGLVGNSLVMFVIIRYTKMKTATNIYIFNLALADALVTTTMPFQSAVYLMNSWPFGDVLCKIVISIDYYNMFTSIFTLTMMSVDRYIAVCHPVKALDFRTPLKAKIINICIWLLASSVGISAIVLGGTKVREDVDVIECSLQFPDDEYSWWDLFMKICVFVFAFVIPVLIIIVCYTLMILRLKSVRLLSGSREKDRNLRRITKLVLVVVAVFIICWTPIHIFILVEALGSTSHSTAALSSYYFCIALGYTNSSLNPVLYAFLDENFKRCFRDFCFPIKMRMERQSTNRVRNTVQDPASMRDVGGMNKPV
Chain of κOR (P41145 whole entry): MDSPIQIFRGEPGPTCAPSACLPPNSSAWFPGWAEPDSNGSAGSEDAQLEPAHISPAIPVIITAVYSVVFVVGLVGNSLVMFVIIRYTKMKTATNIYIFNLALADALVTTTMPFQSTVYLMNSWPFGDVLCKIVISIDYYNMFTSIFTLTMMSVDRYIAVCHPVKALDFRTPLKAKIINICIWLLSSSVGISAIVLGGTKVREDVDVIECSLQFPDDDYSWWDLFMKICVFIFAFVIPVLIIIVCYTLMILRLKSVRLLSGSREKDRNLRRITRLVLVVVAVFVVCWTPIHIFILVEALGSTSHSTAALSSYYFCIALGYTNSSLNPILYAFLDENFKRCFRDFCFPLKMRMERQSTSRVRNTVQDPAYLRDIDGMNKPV
T1 sequence (P32300 whole entry): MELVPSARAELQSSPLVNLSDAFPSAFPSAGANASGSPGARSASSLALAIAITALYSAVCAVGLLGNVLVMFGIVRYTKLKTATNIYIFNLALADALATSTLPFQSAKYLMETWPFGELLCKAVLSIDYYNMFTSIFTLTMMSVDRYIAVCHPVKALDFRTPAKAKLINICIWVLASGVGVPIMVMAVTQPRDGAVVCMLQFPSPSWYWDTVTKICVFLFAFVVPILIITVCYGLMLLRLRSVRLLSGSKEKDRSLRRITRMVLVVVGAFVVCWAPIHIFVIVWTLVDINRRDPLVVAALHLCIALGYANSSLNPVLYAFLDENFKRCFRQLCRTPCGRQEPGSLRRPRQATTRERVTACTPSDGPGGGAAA
Chain of δOR (P41143 whole entry): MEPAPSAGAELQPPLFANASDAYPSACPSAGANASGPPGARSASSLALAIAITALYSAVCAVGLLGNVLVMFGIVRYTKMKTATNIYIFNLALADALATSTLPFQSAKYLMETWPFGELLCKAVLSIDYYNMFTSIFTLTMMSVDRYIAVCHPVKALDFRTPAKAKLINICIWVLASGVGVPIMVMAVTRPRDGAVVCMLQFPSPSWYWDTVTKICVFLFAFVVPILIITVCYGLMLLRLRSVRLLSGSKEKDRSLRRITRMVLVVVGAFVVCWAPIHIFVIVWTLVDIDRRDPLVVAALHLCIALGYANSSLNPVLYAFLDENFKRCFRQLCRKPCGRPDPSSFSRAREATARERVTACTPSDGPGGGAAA
Chain of μOR (P35372 whole entry): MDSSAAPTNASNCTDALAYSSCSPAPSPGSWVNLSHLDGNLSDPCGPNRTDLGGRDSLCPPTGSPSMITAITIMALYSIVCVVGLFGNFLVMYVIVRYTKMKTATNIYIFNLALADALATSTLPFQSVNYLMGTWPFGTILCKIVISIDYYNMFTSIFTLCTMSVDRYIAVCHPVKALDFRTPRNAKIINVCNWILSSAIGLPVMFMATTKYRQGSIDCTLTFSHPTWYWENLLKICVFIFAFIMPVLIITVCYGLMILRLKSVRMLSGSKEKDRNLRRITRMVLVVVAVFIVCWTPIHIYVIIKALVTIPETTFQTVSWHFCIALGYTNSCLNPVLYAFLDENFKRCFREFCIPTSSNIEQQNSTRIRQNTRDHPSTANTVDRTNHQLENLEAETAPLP

C=C[C@H]1CN2CCc3c([nH]c4cccc(OC)c34)[C@@H]2C[C@@H]1/C(=C\OC)C(=O)OC [PAYN, paynantheine]
Ki (μOR): 0.52 µM
Detectability in plasma over time [1]: undetectable after an hour
Tmax in plasma [1]: 10 min
cAMP α (FLAG-mouse δOR [2]; normalized to Leu-enkephalin, ref Gutridge et al., 2020): 64 ± 13
IC50 (FLAG-mouse δOR [2]; [15]): 3.55 µM
cAMP pIC50 (FLAG-mouse δOR [2]; ref Gutridge et al., 2020): 5.6 ± 0.2
Effect on hyperlocomotion induced by 6 mg∙kg^−1 morphine (C57Bl/6 male mice [3]; 10 and 30 mg∙kg^−1 i.p., data from CPP conditioning sessions): dose-dependently attenuated hyperlocomotion
Alcohol consumption (δOR KO mice; paynantheine 10 mg∙kg^−1, male δOR KO mice): decreases alcohol consumption in δOR KO mice
cAMP pIC50 (HA-mouse µOR [4]): 5.4 ± 0.1
cAMP α (HA-mouse µOR [4]): 100 ± 0
IC50 (HA-mouse µOR [4]; read-out: cAMP IC50): 4.08 µM
cAMP α (FLAG-mouse κOR [5]; normalized to U50,488, ref Gutridge et al., 2020): 95 ± 5
IC50 (FLAG-mouse κOR [5]; [15]): 7.43 µM
Conditioned place preference, extended CPP paradigm (C57Bl/6 male mice [6]; 10 mg∙kg^−1 i.p., four drug conditioning sessions, male mice): did not produce CPP nor CPA
Conditioned place preference, brief CPP paradigm (C57Bl/6 male mice [6]; 10 mg∙kg^−1 i.p., two drug conditioning sessions, male mice): modest conditioned place aversion
Block of morphine CPP (C57Bl/6 male mice [6]; 10 and 30 mg∙kg^−1 i.p. pretreatment, morphine 6 mg∙kg^−1, brief CPP): neither dose blocks morphine CPP
Ki (κOR; Binding Ki (µM)): 4 µM
Ki (κOR; Binding pKi): 3.16 µM
Alcohol intake (wild-type C57Bl/6 mice [7]): dose-dependently decreases alcohol intake
Hyperlocomotion at effective dose (C57Bl/6 male mice [8]): does not produce hyperlocomotion
Functional activity at human ORs (human ORs): weak antagonist
Convulsive behaviors, Racine level (WT and δOR KO mice; 30 mg∙kg^−1 i.p., wild type and δOR KO mice): 1–2
Block of morphine analgesia (C57Bl/6 male mice [9]; 10 mg∙kg^−1 i.p., morphine 6 mg∙kg^−1 s.c.): does not block morphine analgesia
Block of morphine analgesia (C57Bl/6 male mice [9]; 30 mg∙kg^−1 i.p., morphine 6 mg∙kg^−1 s.c.): blocks morphine analgesia
Block of antinociception produced by 6 mg∙kg^−1 morphine (C57Bl/6 male mice [9]; 10 and 30 mg∙kg^−1 i.p., 10 min before morphine s.c.): dose-dependently blocked antinociception
Antinociceptive effect (agonist mode, %MPE) (C57Bl/6 male mice [9]; 10 and 30 mg∙kg^−1 i.p., 30 min): neither the 10 nor 30 mg∙kg^−1 dose displayed meaningful antinociceptive effects

CC[C@H]1CN2CC[C@@]3(O)C(=Nc4cccc(OC)c43)[C@@H]2C[C@@H]1/C(=C\OC)C(=O)OC [7OH SPG, 7-Hydroxyspeciogynine]
Ambulation (C57Bl/6 male mice [3]; 10 mg∙kg^−1 s.c., data from CPP experiment): did not significantly alter ambulation
IC50 (HA-mouse µOR [10]): 0.61 µM
Emax (HA-mouse µOR [10]; [16]): 66 ± 6%
Ethanol consumption (δOR KO mice; 7-hydroxyspeciogynine 3 mg∙kg^−1 s.c.): lack of effect
Ethanol consumption (δOR KO mice; 7-hydroxyspeciogynine 10 mg∙kg^−1 s.c.): significantly decreased ethanol consumption
Ethanol consumption, water consumption, ethanol preference (wild-type C57Bl/6 mice [11]; 3 mg∙kg^−1 s.c., WT female mice): did not significantly modulate ethanol consumption, water consumption, or ethanol preference
Δ ethanol intake, males and females pooled (wild-type C57Bl/6 mice [11]; 3 mg∙kg^−1 s.c., WT male and female mice): significant ethanol modulation effect
Δ ethanol preference, males and females pooled (wild-type C57Bl/6 mice [11]; [17]): significant decrease in ethanol preference
Δ water consumption, males and females pooled (wild-type C57Bl/6 mice [11]; [17]): concomitant increase in water consumption was evident
Decrease in ethanol consumption (wild-type C57Bl/6 mice [11]; 10 mg∙kg^−1 s.c., WT mice): 1.2 ± 0.2 g/kg
Reduction in ethanol consumption (wild-type C57Bl/6 mice [11]; 10 mg∙kg^−1 s.c., WT mice): 40 ± 7%
Ethanol preference (wild-type C57Bl/6 mice [11]; [18]): corresponding decrease in ethanol preference
Water consumption (wild-type C57Bl/6 mice [11]; [18]): concomitant increase in water consumption
Alcohol intake (wild-type C57Bl/6 mice [11]; 7-hydroxyspeciogynine 3 and 10 mg∙kg^−1 s.c., wild-type male mice): reduced alcohol intake in a dose-dependent manner
MTD at 10 days [12]: ≥ 10 mg/kg
IC50 (FLAG-mouse δOR [13]): 2.27 µM
Emax (FLAG-mouse δOR [13]; [16]): 76 ± 6%
Conditioned place preference, extended protocol (C57Bl/6 male mice [6]; 10 mg∙kg^−1 s.c., four conditioning sessions, male WT mice): did not develop conditioned place preference
Ki (κOR; Binding Ki (µM)): 1.63 µM
IC50 (FLAG-mouse κOR [14]): 7.71 µM
Emax (FLAG-mouse κOR [14]; [16]): 80 ± 20%
Ki (δOR): 0.46 µM
Seizures (WT and δOR KO mice; 10 mg∙kg^−1 s.c., 30 min): nor induce noticeable seizures
Block of morphine analgesia (C57Bl/6 male mice [9]; 10 mg∙kg^−1 s.c., then morphine 6 mg∙kg^−1 s.c. 10 min later): did not produce antinociception (paired, two-tailed t test, t = 0.6193, df = 9, p = 0.5511) or block morphine analgesia
Antinociception (agonist mode) (C57Bl/6 male mice [9]; 10 mg∙kg^−1 s.c., male mice): did not produce antinociception

— publication PMC8596301 (Frontiers in Pharmacology, 2021)
